Experimental data reported in ChEMBL document CHEMBL1150798, “Combined therapies in a murine model of blastoschizomycosis” (2007).
≈ marks a conversion by molar mass, not a printed value. Starred links: 1 amine or outer side, 2 acyl side, 3 side chain; linkers in the order of their positions; H or OH if unused. Positions of bridges follow the written chain, without caps; N, C: chain ends. Non-standard residues stand in square brackets, D forms with d. Residues, ends and D or L forms follow the SMILES beside them. *: point of attachment. hTyr(3S-OH,4S-OH,3'-OSO3H) = N[C@H](C(=O)O)[C@H](O)[C@@H](O)c1ccc(O)c(OS(=O)(=O)O)c1; Orn(4R-OH,5R-OH) = O=C([C@H](C[C@@H](O)[C@@H](O)N[*:3])N[*:1])[*:2]; Pro(3S-OH,4S-Me) = C[C@H]1CN[C@H](C(=O)O)[C@H]1O; X1 = CCCCCOc1ccc(-c2cc(-c3ccc(C(=O)*)cc3)no2)cc1; Gln(3R-OH) = NC(=O)C[C@@H](O)[C@H](N)C(=O)O; Hyp = O=C(O)[C@@H]1C[C@@H](O)CN1

Legend:
Format in all cases: functional
[1] = tested on: Magnusiomyces capitatus; assay: Antimicrobial activity against Blastoschizomyces capitatus IHEM 5666 isolate by microdilution method
[2] = tested on: Magnusiomyces capitatus; assay: Antimicrobial activity against Blastoschizomyces capitatus IHEM 16105 isolate infected OF1 mouse blastoschizomycosis model assessed as mean survival time at 1 mg/kg/day, ip for 6 days administered 1 hr before microbial challenge; conditions: route intraperitoneal
[3] = tested on: Magnusiomyces capitatus; assay: Antimicrobial activity against Blastoschizomyces capitatus IHEM 5666 isolate infected OF1 mouse blastoschizomycosis model assessed as mean survival time at 1 mg/kg/day, ip for 6 days administered 1 hr before microbial challenge; conditions: route intraperitoneal
[4] = tested on: Magnusiomyces capitatus; assay: Antimicrobial activity against Blastoschizomyces capitatus IHEM 16105 isolate infected OF1 mouse blastoschizomycosis model assessed as liver microbial count per gram of tissue at 1 mg/kg/day, ip for 6 days administered 1 hr before microbial challenge; conditions: route intraperitoneal
[5] = tested on: Magnusiomyces capitatus; assay: Antimicrobial activity against Blastoschizomyces capitatus IHEM 16105 isolate infected OF1 mouse blastoschizomycosis model assessed as spleen microbial count per gram of tissue at 1 mg/kg/day, ip for 6 days administered 1 hr before microbial challenge; conditions: route intraperitoneal
[6] = tested on: Magnusiomyces capitatus; assay: Antimicrobial activity against Blastoschizomyces capitatus IHEM 16105 isolate infected OF1 mouse blastoschizomycosis model assessed as kidney microbial count per gram of tissue at 1 mg/kg/day, ip for 6 days administered 1 hr before microbial challenge; conditions: route intraperitoneal
[7] = tested on: Magnusiomyces capitatus; assay: Antimicrobial activity against Blastoschizomyces capitatus IHEM 5666 isolate infected OF1 mouse blastoschizomycosis model assessed as liver microbial count at 1 mg/kg/day, ip for 6 days administered 1 hr before microbial challenge; conditions: route intraperitoneal
[8] = tested on: Magnusiomyces capitatus; assay: Antimicrobial activity against Blastoschizomyces capitatus IHEM 5666 isolate infected OF1 mouse blastoschizomycosis model assessed as spleen microbial count at 1 mg/kg/day, ip for 6 days administered 1 hr before microbial challenge; conditions: route intraperitoneal
[9] = tested on: Magnusiomyces capitatus; assay: Antimicrobial activity against Blastoschizomyces capitatus IHEM 5666 isolate infected OF1 mouse blastoschizomycosis model assessed as kidney microbial count at 1 mg/kg/day, ip for 6 days administered 1 hr before microbial challenge; conditions: route intraperitoneal
[10] = tested on: Magnusiomyces capitatus; assay: Antimicrobial activity against Blastoschizomyces capitatus IHEM 16105 isolate infected OF1 mouse blastoschizomycosis model assessed as mean survival time at 80 mg/kg/day, po for 6 days administered 1 hr before microbial challenge
[11] = tested on: Magnusiomyces capitatus; assay: Antimicrobial activity against Blastoschizomyces capitatus IHEM 5666 isolate infected OF1 mouse blastoschizomycosis model assessed as mean survival time at 80 mg/kg/day, po for 6 days administered 1 hr before microbial challenge
[12] = tested on: Magnusiomyces capitatus; assay: Antimicrobial activity against Blastoschizomyces capitatus IHEM 16105 isolate infected OF1 mouse blastoschizomycosis model assessed as liver microbial count per gram of tissue at 80 mg/kg/day, po for 6 days administered 1 hr before microbial challenge
[13] = tested on: Magnusiomyces capitatus; assay: Antimicrobial activity against Blastoschizomyces capitatus IHEM 16105 isolate infected OF1 mouse blastoschizomycosis model assessed as spleen microbial count per gram of tissue at 80 mg/kg/day, po for 6 days administered 1 hr before microbial challenge
[14] = tested on: Magnusiomyces capitatus; assay: Antimicrobial activity against Blastoschizomyces capitatus IHEM 16105 isolate infected OF1 mouse blastoschizomycosis model assessed as kidney microbial count per gram of tissue at 80 mg/kg/day, po for 6 days administered 1 hr before microbial challenge
[15] = tested on: Magnusiomyces capitatus; assay: Antimicrobial activity against Blastoschizomyces capitatus IHEM 5666 isolate infected OF1 mouse blastoschizomycosis model assessed as liver microbial count per gram of tissue at 80 mg/kg/day, po for 6 days administered 1 hr before microbial challenge
[16] = tested on: Magnusiomyces capitatus; assay: Antimicrobial activity against Blastoschizomyces capitatus IHEM 5666 isolate infected OF1 mouse blastoschizomycosis model assessed as spleen microbial count per gram of tissue at 80 mg/kg/day, po for 6 days administered 1 hr before microbial challenge
[17] = tested on: Magnusiomyces capitatus; assay: Antimicrobial activity against Blastoschizomyces capitatus IHEM 5666 isolate infected OF1 mouse blastoschizomycosis model assessed as kidney microbial count per gram of tissue at 80 mg/kg/day, po for 6 days administered 1 hr before microbial challenge
[18] = tested on: Magnusiomyces capitatus; assay: Antimicrobial activity against Blastoschizomyces capitatus IHEM 16105 isolate infected OF1 mouse blastoschizomycosis model assessed as spleen microbial count per gram of tissue at 60 mg/kg/day, po for 6 days administered 1 hr before microbial challenge
[19] = tested on: Magnusiomyces capitatus; assay: Antimicrobial activity against Blastoschizomyces capitatus IHEM 16105 isolate by microdilution method
[20] = tested on: Magnusiomyces capitatus; assay: Antimicrobial activity against Blastoschizomyces capitatus IHEM 16105 isolate infected OF1 mouse blastoschizomycosis model assessed as mean survival time at 60 mg/kg/day, po for 6 days administered 1 hr before microbial challenge
[21] = tested on: Magnusiomyces capitatus; assay: Antimicrobial activity against Blastoschizomyces capitatus IHEM 5666 isolate infected OF1 mouse blastoschizomycosis model assessed as mean survival time at 60 mg/kg/day, po for 6 days administered 1 hr before microbial challenge
[22] = tested on: Magnusiomyces capitatus; assay: Antimicrobial activity against Blastoschizomyces capitatus IHEM 16105 isolate infected OF1 mouse blastoschizomycosis model assessed as liver microbial count per gram of tissue at 60 mg/kg/day, po for 6 days administered 1 hr before microbial challenge
[23] = tested on: Magnusiomyces capitatus; assay: Antimicrobial activity against Blastoschizomyces capitatus IHEM 16105 isolate infected OF1 mouse blastoschizomycosis model assessed as kidney microbial count per gram of tissue at 60 mg/kg/day, po for 6 days administered 1 hr before microbial challenge
[24] = tested on: Magnusiomyces capitatus; assay: Antimicrobial activity against Blastoschizomyces capitatus IHEM 5666 isolate infected OF1 mouse blastoschizomycosis model assessed as liver microbial count at 60 mg/kg/day, po for 6 days administered 1 hr before microbial challenge
[25] = tested on: Magnusiomyces capitatus; assay: Antimicrobial activity against Blastoschizomyces capitatus IHEM 5666 isolate infected OF1 mouse blastoschizomycosis model assessed as spleen microbial count at 60 mg/kg/day, po for 6 days administered 1 hr before microbial challenge
[26] = tested on: Magnusiomyces capitatus; assay: Antimicrobial activity against Blastoschizomyces capitatus IHEM 5666 isolate infected OF1 mouse blastoschizomycosis model assessed as kidney microbial count at 60 mg/kg/day, po for 6 days administered 1 hr before microbial challenge
[27] = tested on: Magnusiomyces capitatus; assay: Antimicrobial activity against Blastoschizomyces capitatus IHEM 5666 isolate infected OF1 mouse blastoschizomycosis model assessed as spleen microbial count at 10 mg/kg/day, sc for 6 days administered 1 hr before microbial challenge; conditions: route subcutaneous
[28] = tested on: Magnusiomyces capitatus; assay: Antimicrobial activity against Blastoschizomyces capitatus IHEM 5666 isolate infected OF1 mouse blastoschizomycosis model assessed as kidney microbial count at 10 mg/kg/day, sc for 6 days administered 1 hr before microbial challenge; conditions: route subcutaneous
[29] = tested on: Magnusiomyces capitatus; assay: Antimicrobial activity against Blastoschizomyces capitatus IHEM 16105 isolate infected OF1 mouse blastoschizomycosis model assessed as mean survival time at 10 mg/kg/day, sc for 6 days administered 1 hr before microbial challenge; conditions: route subcutaneous
[30] = tested on: Magnusiomyces capitatus; assay: Antimicrobial activity against Blastoschizomyces capitatus IHEM 5666 isolate infected OF1 mouse blastoschizomycosis model assessed as mean survival time at 10 mg/kg/day, sc for 6 days administered 1 hr before microbial challenge; conditions: route subcutaneous
[31] = tested on: Magnusiomyces capitatus; assay: Antimicrobial activity against Blastoschizomyces capitatus IHEM 16105 isolate infected OF1 mouse blastoschizomycosis model assessed as liver microbial count per gram of tissue at 10 mg/kg/day, sc for 6 days administered 1 hr before microbial challenge; conditions: route subcutaneous
[32] = tested on: Magnusiomyces capitatus; assay: Antimicrobial activity against Blastoschizomyces capitatus IHEM 16105 isolate infected OF1 mouse blastoschizomycosis model assessed as spleen microbial count per gram of tissue at 10 mg/kg/day, sc for 6 days administered 1 hr before microbial challenge; conditions: route subcutaneous
[33] = tested on: Magnusiomyces capitatus; assay: Antimicrobial activity against Blastoschizomyces capitatus IHEM 16105 isolate infected OF1 mouse blastoschizomycosis model assessed as kidney microbial count per gram of tissue at 10 mg/kg/day, sc for 6 days administered 1 hr before microbial challenge; conditions: route subcutaneous
[34] = tested on: Magnusiomyces capitatus; assay: Antimicrobial activity against Blastoschizomyces capitatus IHEM 5666 isolate infected OF1 mouse blastoschizomycosis model assessed as liver microbial count at 10 mg/kg/day, sc for 6 days administered 1 hr before microbial challenge; conditions: route subcutaneous
[35] = tested on: Magnusiomyces capitatus; assay: Antimicrobial activity against Blastoschizomyces capitatus IHEM 16105 isolate infected OF1 mouse blastoschizomycosis model assessed as mean survival time at 40 mg/kg/day, po for 6 days administered 1 hr before microbial challenge
[36] = tested on: Magnusiomyces capitatus; assay: Antimicrobial activity against Blastoschizomyces capitatus IHEM 5666 isolate infected OF1 mouse blastoschizomycosis model assessed as mean survival time at 40 mg/kg/day, po for 6 days administered 1 hr before microbial challenge
[37] = tested on: Magnusiomyces capitatus; assay: Antimicrobial activity against Blastoschizomyces capitatus IHEM 16105 isolate infected OF1 mouse blastoschizomycosis model assessed as liver microbial count per gram of tissue at 40 mg/kg/day, po for 6 days administered 1 hr before microbial challenge
[38] = tested on: Magnusiomyces capitatus; assay: Antimicrobial activity against Blastoschizomyces capitatus IHEM 16105 isolate infected OF1 mouse blastoschizomycosis model assessed as spleen microbial count per gram of tissue at 40 mg/kg/day, po for 6 days administered 1 hr before microbial challenge
[39] = tested on: Magnusiomyces capitatus; assay: Antimicrobial activity against Blastoschizomyces capitatus IHEM 16105 isolate infected OF1 mouse blastoschizomycosis model assessed as kidney microbial count per gram of tissue at 40 mg/kg/day, po for 6 days administered 1 hr before microbial challenge
[40] = tested on: Magnusiomyces capitatus; assay: Antimicrobial activity against Blastoschizomyces capitatus IHEM 5666 isolate infected OF1 mouse blastoschizomycosis model assessed as liver microbial count at 40 mg/kg/day, po for 6 days administered 1 hr before microbial challenge
[41] = tested on: Magnusiomyces capitatus; assay: Antimicrobial activity against Blastoschizomyces capitatus IHEM 5666 isolate infected OF1 mouse blastoschizomycosis model assessed as spleen microbial count at 40 mg/kg/day, po for 6 days administered 1 hr before microbial challenge
[42] = tested on: Magnusiomyces capitatus; assay: Antimicrobial activity against Blastoschizomyces capitatus IHEM 5666 isolate infected OF1 mouse blastoschizomycosis model assessed as kidney microbial count at 40 mg/kg/day, po for 6 days administered 1 hr before microbial challenge

Structure (SMILES): C[C@@H]1[C@H](O)[C@@H](C)/C=C/C=C/C=C/C=C/C=C/C=C/C=C/[C@H](O[C@@H]2O[C@H](C)[C@@H](O)[C@H](N)[C@@H]2O)C[C@@H]2O[C@](O)(C[C@@H](O)C[C@@H](O)[C@H](O)CC[C@@H](O)C[C@@H](O)CC(=O)O[C@H]1C)C[C@H](O)[C@H]2C(=O)O [AMPHOTERICIN B]
- MIC [1]: 1 µg/mL (≈ 1.08 µM)
- MST [2]: 12.3 days
- MST [3]: 12.2 days
- log10cfu [4]: 5.17
- log10cfu [5]: 6.02
- log10cfu [6]: 7
- log10cfu [7]: 4.47
- log10cfu [8]: 4.87
- log10cfu [9]: 7.39

Structure (SMILES): OC(Cn1cncn1)(Cn1cncn1)c1ccc(F)cc1F [FLUCONAZOLE]
- MIC [1]: 16 µg/mL (≈ 52.2 µM)
- MST [10]: 25.7 days
- MST [11]: 30 days
- log10cfu [12]: 1.37
- log10cfu [13]: 1.59
- log10cfu [14]: 3.72
- log10cfu [15]: 2.49
- log10cfu [16]: 2.05
- log10cfu [17]: 4.31

Structure (SMILES): Nc1nc(=O)[nH]cc1F [FLUCYTOSINE]
- log10cfu [18]: 5.45
- MIC [19]: 0.25 µg/mL (≈ 1.94 µM)
- MIC [1]: 64 µg/mL (≈ 496 µM)
- MST [20]: 17.7 days
- MST [21]: 7.6 days
- log10cfu [22]: 4.28
- log10cfu [23]: 7.29
- log10cfu [24]: 5.69
- log10cfu [25]: 6.76
- log10cfu [26]: 7.13

Structure (SMILES): CCCCCOc1ccc(-c2cc(-c3ccc(C(=O)N[C@H]4C[C@@H](O)[C@@H](O)NC(=O)[C@@H]5[C@@H](O)[C@@H](C)CN5C(=O)[C@H]([C@H](O)CC(N)=O)NC(=O)[C@H]([C@H](O)[C@@H](O)c5ccc(O)c(OS(=O)(=O)O)c5)NC(=O)[C@@H]5C[C@@H](O)CN5C(=O)[C@H]([C@@H](C)O)NC4=O)cc3)no2)cc1 [MICAFUNGIN] (X1-[Orn(4R-OH,5R-OH)]T[Hyp][hTyr(3S-OH,4S-OH,3'-OSO3H)][Gln(3R-OH)][Pro(3S-OH,4S-Me)]; lactam 1-C)
- log10cfu [27]: 7.03
- log10cfu [28]: 7.52
- MIC [19]: 64 µg/mL (≈ 50.4 µM)
- MIC [1]: 64 µg/mL (≈ 50.4 µM)
- MST [29]: 7.59 days
- MST [30]: 6.6 days
- log10cfu [31]: 5.26
- log10cfu [32]: 7.69
- log10cfu [33]: 7.5
- log10cfu [34]: 5.32

Structure (SMILES): C[C@@H](c1ncncc1F)[C@](O)(Cn1cncn1)c1ccc(F)cc1F [VORICONAZOLE]
- MIC [19]: 1 µg/mL (≈ 2.86 µM)
- MIC [1]: 0.25 µg/mL (≈ 0.716 µM)
- MST [35]: 15.78 days
- MST [36]: 17.1 days
- log10cfu [37]: 4.33
- log10cfu [38]: 5.56
- log10cfu [39]: 6.98
- log10cfu [40]: 5.63
- log10cfu [41]: 4.75
- log10cfu [42]: 6.78
